Results on four compounds are retold here after US11826426B2, “Nanoscale metal-organic layers and metal-organic nanoplates for x-ray induced photodynamic therapy, radiotherapy, radiodynamic therapy, chemotherapy, immunotherapy, and any combination thereof” (priority 2017, dated 2023).

Holding throughout (format): cell-based, murine
One assay relates to COX-2. Put plainly: COX-2 assay (cell membrane damage by RDT). The conditions noted are these: CT26, 10 μM 4 h; for COX-2 mean fluorescence intensities (flow cytometry): with X-ray irradiation. How it is done:
Thus, the cell membrane damage caused by RDT upon X-ray irradiation was investigated by COX-2 assay (BD Bioscience, Franklin Lakes, New Jersey, United States of America) in CT26 cells. Cells were seeded on cover slides in 6-well plates and cultured for 12 h then incubated with Hf12-DBP, Hf12-DBP-Pt, H2DBP-Pt or PBS at a Hf concentration of 10 μM or ligand with concentration of 10 μM for 4 h followed by X-ray irradiation (250 kVp, 15 mA, mm Cu filter) at 0 and 2 Gy dose. Cells were fixed with 4% paraformaldehyde immediately after X-ray or light irradiation. Biotin-conjugated anti-COX-2 antibody with concentration of 10 μg/mL were incubated with cells at 4° C. overnight then followed by incubation with Cy3-conjugated streptavidin. The nuclei were stained with DAPI. […] The cells were imaged with CLSM and quantified by flow cytometry.
To further study the stronger RDT effect from the Hf12-DBP-Pt treated group, flow cytometry was performed to quantify the difference of COX-2 upregulation of cells treated with Hf12-DBP-Pt, Hf12-DBP, H2DBP-Pt or H2DBP. The mean fluorescence intensities were 7441, 1804, 821, and 225 for the t cells treated with Hf12-DBP-Pt, Hf12-DBP, H2DBP-Pt and H2DBP with X-ray irradiation, respectively.

The test system of assay [1] is CT26 cells. The experiment in a line: Annexin V/dead cell apoptosis kit, flow cytometry, CT26. The conditions noted are these: 48 h. How it is done:
(§1) The in vitro anticancer efficacy of Hf12-DBP and Hf12-DBP-Pt were further evaluated on CT26 and MC38 cells. Cells were cultured in a 6-well plate overnight and incubated with particles at a Hf concentration of 20 μM for 4 h followed by irradiation with 0 or 2 Gy X-ray (250 kVp, 15 mA, 1 mm Cu filter). 48 h later, the cells were stained according to the AlexaFluor 488 Annexin V/dead cell apoptosis kit (Life Technologies, Carlsbad, California United States of America) and quantified by flow cytometry.
The in vitro anticancer efficacy of POM, Hf6-QPDC-Ir, Hf12-QPDC-Ir and POM@Hf12-QPDC-Ir were evaluated on CT26 and MC38 cells. Cells were cultured in a 6-well plate overnight and incubated with particles at a Hf concentration of 20 μM or equivalent W concentration for 4 h followed by irradiation with 0 or 2 Gy X-ray (250 kVp, 15 mA, 1 mm Cu filter). 48 h later, the cells were stained according to the AlexaFluor 488 Annexin V/dead cell apoptosis kit (Life Technologies, Carlsbad, California, United States of America) and quantified by flow cytometry.

The next assay concerns MC38 cells. The experiment in a line: Annexin V/dead cell apoptosis kit, flow cytometry, MC38. Conditions: 48 h. How it is done:
as §1
The in vitro anticancer efficacy of POM, Hf6-QPDC-Ir, Hf12-QPDC-Ir and POM@Hf12-QPDC-Ir were evaluated on CT26 and MC38 cells. Cells were cultured in a 6-well plate overnight and incubated with particles at a Hf concentration of 20 μM or equivalent W concentration for 4 h followed by irradiation with 0 or 2 Gy X-ray (250 kVp, 15 mA, 1 mm Cu filter). 48 h later, the cells were stained according to the AlexaFluor 488 Annexin V/dead cell apoptosis kit (Life Technologies, Carlsbad, California, United States of America) and quantified by flow cytometry. […]

The subject of assay [2] is CT26 cells. The experiment in a line: Intracellular singlet oxygen generation (SOSG, CLSM), Example 1. The conditions noted are these: 20 μM based on Ir, Ru or BPY, 8 h, X-ray 2 Gy. How it is done: ^1O2 generation in live cells was detected by Singlet Oxygen Sensor Green (SOSG, Life Technology, USA). CT26 cells were seeded in a 3.5-cm petri dish and cultured for 12 h. The culture medium was then replaced with fresh medium containing 1 μM SOSG to preload the cells with SOSG. After incubating for 30 min, the cells were washed by PBS three times to remove excess SOSG. The cells were incubated in PBS, with Hf-MOLs or ligands at a ligand concentration of 20 μM for 8 h, then washed with PBS three times to remove excess MOLs or ligands. X-ray irradiation was applied to cells at a dose of 2 Gy (250 kVp, 15 mA, 1-mm Cu filter). Confocal laser scanning microscopy (CLSM; FV1000 Laser Scanning Confocal Microscope, Olympus Corporation, Tokyo, Japan) was used to visualize the ^1O2 generated in the live cells by detecting the green fluorescence inside the cells.
The mechanism of X-ray induced cytotoxicity on CT26 cells was explored. ^1O2 generation in live cells was examined by Singlet Oxygen Sensor Green (SOSG) and detected by confocal laser scanning microscopy (CLSM). After preloading cells with SOSG and incubating them with PBS, Hf-MOLs, or H3BPY ligand for 8 h at a concentration of 20 μM based on Ir, Ru, or BPY, respectively, they were irradiated with X-rays at a dose of 2 Gy, immediately followed by CLSM imaging.

The mark [3] stands for this setting: Table 8, 0 Gy (dark), Hf 20 μM 4 h.
Where [4] appears, read: Table 8, 2 Gy X-ray, Hf 20 μM 4 h.
Where [5] appears, read: Table 9, 0 Gy (dark), Hf 20 μM 4 h.
The mark [6] stands for this setting: Table 9, 2 Gy X-ray, Hf 20 μM 4 h.
The mark [7] stands for this setting: Table 10, 0 Gy (dark), Hf 20 μM or equivalent W 4 h.
Setting [8] is: Table 10, 2 Gy X-ray, Hf 20 μM or equivalent W 4 h.
[9] abbreviates: Table 11, 0 Gy (dark), Hf 20 μM or equivalent W 4 h.
[10] abbreviates: Table 11, 2 Gy X-ray, Hf 20 μM or equivalent W 4 h.

As to `O=C(O)c1ccc(-c2c3nc(cc4ccc([n-]4)c(-c4ccc(C(=O)O)cc4)c4nc(cc5ccc2[n-]5)C=C4)C=C3)cc1.[Pt+2]` [H2DBP-Pt, platinum-complexed 5, 15-di(p-benzoato)porphyrin], the “COX-2 mean fluorescence intensities (flow cytometry)” value with COX-2 amounted to 821. In addition, the “COX-2 upregulation by CLSM” value in the assay on COX-2 (with X-ray irradiation (2 Gy)) and with COX-2 (without X-ray irradiation) was “No fluorescence signal” each time. Further, the Early apoptosis with CT26 cells [1] (setting [3]) was 0.66%; with CT26 cells [1] (setting [4]), 0.73%; with MC38 cells (setting [5]), 3.99%; in the assay with MC38 cells (setting [6]), 15.9%. For the same compound, the Healthy cells was found to be 88.2% in the assay on CT26 cells [1] (setting [3]), 69.3% in the assay with CT26 cells [1] (setting [4]), 93.9% in the assay on MC38 cells (setting [5]) and 78.2% with MC38 cells (setting [6]). The Late apoptosis stood at 4.86% with CT26 cells [1] (setting [3]), 8.45% in the assay on CT26 cells [1] (setting [4]), 1.90% in the assay on MC38 cells (setting [5]) and 5.31% with MC38 cells (setting [6]). Further, the Necrosis is 6.26% in the assay on CT26 cells [1] (setting [3]), 21.5% with CT26 cells [1] (setting [4]), 3.18% with MC38 cells (setting [5]) and 0.55% in the assay with MC38 cells (setting [6]).
Regarding `O=C(O)c1ccc(-c2cc(-c3ccc(C(=O)O)cc3)nc(-c3cc(C(=O)O)ccn3)c2)cc1` [H3BPY, 4′,6′-dibenzoato-[2,2′-bipyridine]-4-carboxylic acid], the “SOSG fluorescence (^1O2 in live cells)” value in the assay on CT26 cells [2] was “no SOSG signal”.
On to [P2W18O62]^6− [POM, reference compound], for which, in the assay on CT26 cells [1] (setting [7]), the Early apoptosis amounted to 0.051%, the Healthy cells was determined as 99.7%, the Late apoptosis is given as 0.0057% and the Necrosis came to 0.21%. Further, in the assay on CT26 cells [1] (setting [8]), the Early apoptosis stood at 5.71%, the Healthy cells was determined as 83.1%, the Late apoptosis came out at 8.14% and the Necrosis came out at 3.05%. In the assay on MC38 cells (setting [9]), the Early apoptosis amounted to 0.44%, the Healthy cells was found to be 97.3%, the Late apoptosis stood at 0.86% and the Necrosis was 1.53%. In the assay on MC38 cells (setting [10]), the Early apoptosis worked out at 2.35%, the Healthy cells came to 70.9%, the Late apoptosis worked out at 14.0% and the Necrosis was found to be 12.7%.
`O=C(O)c1ccc(-c2c3nc(cc4ccc([nH]4)c(-c4ccc(C(=O)O)cc4)c4nc(cc5ccc2[nH]5)C=C4)C=C3)cc1` [H2DBP, 5,15-di(p-benzoato)porphyrin]: the “COX-2 mean fluorescence intensities (flow cytometry)” value with COX-2 worked out at 225.
